Holding throughout (assay type): biochemical
For one experiment, the target named is BoNT/A LC (Clostridium botulinum, UniProt P0DPI0).
The target in another experiment is BoNT/B LC (Clostridium botulinum, UniProt P10844). To be noted: read-out: IC50 BoNT/B LC FRET.
The target in another experiment is BaLF (Bacillus anthracis, UniProt P15917). To be noted: read-out: IC50 BaLF FRET.
A further experiment addresses MMP-1 (Homo sapiens, UniProt P03956). To be noted: read-out: IC50 MMP-1 (FRET assay).
Another experiment deals with MMP-2 (Homo sapiens, UniProt P08253). The following applies: read-out: IC50 MMP-2 (FRET assay).
Chain of MMP-2 (P08253 110-660): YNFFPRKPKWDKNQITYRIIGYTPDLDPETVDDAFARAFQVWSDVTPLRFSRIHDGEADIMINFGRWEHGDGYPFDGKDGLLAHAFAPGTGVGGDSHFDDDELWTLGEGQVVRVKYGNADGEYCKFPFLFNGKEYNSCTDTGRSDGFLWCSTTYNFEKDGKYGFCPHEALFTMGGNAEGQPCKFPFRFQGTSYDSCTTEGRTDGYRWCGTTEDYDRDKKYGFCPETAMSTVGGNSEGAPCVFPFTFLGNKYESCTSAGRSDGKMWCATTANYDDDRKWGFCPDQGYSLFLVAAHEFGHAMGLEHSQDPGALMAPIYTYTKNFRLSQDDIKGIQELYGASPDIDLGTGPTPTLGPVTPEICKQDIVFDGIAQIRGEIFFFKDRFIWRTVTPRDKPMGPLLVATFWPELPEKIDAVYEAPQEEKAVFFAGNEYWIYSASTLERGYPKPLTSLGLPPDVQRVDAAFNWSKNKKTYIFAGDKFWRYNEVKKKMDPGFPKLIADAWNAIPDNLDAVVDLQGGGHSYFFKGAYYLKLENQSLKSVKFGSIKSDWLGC
The next experiment concerns the target MMP-9 (Homo sapiens, UniProt P14780). The following applies: read-out: IC50 MMP-9 (FRET assay).

Bounds are passed on as bounds.

Chain of MMP-1 (P03956 100-469): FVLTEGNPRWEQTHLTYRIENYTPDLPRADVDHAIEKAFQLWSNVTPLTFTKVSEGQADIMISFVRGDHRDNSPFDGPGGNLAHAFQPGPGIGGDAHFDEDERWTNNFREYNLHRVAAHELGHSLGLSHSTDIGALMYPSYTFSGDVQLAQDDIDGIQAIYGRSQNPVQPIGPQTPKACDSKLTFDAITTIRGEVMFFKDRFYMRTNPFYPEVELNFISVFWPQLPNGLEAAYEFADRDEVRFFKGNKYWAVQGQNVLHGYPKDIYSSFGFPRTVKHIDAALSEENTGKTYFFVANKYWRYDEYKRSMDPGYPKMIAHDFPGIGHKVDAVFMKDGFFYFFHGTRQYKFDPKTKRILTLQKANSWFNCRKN
Chain of BaLF (P15917 34-809 limits assumed): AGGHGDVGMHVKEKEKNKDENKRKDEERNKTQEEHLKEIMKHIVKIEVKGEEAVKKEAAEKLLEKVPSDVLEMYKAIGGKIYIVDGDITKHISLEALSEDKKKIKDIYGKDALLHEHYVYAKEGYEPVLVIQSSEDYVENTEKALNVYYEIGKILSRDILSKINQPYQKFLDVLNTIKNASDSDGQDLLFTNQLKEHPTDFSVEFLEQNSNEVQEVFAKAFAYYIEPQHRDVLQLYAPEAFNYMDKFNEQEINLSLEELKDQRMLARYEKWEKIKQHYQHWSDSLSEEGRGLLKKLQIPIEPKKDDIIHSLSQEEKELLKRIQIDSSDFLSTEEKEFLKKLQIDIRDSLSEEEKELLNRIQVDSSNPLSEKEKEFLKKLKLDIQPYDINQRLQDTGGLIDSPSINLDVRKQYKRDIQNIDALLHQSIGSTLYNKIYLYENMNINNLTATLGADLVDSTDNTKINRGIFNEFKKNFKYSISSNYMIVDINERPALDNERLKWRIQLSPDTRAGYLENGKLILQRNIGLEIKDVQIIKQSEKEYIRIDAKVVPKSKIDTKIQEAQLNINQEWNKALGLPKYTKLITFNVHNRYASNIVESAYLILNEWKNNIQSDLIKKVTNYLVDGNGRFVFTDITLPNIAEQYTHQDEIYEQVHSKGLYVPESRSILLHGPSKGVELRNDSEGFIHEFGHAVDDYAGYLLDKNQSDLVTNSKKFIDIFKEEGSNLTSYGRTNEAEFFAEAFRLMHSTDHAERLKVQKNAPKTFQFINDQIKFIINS
Chain of BoNT/B LC (P10844 2-441 limits assumed): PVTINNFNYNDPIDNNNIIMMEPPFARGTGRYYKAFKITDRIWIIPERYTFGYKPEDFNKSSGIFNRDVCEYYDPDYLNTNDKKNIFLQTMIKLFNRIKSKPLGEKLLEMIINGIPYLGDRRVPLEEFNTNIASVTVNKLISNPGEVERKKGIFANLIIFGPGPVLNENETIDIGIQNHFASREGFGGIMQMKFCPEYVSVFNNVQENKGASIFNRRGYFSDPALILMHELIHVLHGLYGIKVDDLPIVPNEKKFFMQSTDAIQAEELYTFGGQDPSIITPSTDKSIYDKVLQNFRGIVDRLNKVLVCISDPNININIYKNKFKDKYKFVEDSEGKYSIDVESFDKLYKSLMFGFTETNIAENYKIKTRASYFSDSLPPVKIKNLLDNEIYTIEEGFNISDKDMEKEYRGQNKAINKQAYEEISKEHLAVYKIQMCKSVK
Chain of BoNT/A LC (P0DPI0 2-448 limits assumed): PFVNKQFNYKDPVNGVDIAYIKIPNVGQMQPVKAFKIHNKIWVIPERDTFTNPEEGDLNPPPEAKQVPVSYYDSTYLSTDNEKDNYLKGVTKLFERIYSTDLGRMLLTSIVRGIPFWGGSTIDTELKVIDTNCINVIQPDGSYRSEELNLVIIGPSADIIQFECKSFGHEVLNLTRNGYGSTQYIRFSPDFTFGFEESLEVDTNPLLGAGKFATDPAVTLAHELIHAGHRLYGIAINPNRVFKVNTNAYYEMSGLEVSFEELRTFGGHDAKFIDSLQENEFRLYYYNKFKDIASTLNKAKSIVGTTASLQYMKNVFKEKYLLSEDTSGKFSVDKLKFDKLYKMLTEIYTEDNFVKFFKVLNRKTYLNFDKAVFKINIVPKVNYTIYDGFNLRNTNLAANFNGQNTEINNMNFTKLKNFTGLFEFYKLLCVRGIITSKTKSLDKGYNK
Chain of MMP-9 (P14780 94-707): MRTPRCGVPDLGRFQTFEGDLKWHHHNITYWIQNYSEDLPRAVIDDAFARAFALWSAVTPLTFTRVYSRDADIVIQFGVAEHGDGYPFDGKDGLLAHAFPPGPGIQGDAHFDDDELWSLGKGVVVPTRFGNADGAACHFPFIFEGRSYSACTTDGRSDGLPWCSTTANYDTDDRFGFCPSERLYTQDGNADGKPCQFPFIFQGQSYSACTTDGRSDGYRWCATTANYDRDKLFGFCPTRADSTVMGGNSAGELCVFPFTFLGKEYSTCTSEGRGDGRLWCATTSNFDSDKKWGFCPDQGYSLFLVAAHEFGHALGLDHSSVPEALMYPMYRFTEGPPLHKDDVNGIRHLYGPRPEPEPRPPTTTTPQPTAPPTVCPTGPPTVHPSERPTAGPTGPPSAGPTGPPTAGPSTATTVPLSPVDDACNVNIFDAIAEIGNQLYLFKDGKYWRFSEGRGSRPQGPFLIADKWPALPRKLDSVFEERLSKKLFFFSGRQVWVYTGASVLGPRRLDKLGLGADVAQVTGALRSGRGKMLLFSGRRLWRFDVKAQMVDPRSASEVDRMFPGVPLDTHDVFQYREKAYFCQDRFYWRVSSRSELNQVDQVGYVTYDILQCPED

Turning to `[Cl-].[Cl-].[Zn+2]` [zinc chloride], the “inhibition of BoNT/A LC activity” value at BoNT/A LC was 4–5%.
For the compound `O=C(C=Cc1ccc(Cl)cc1Cl)NO` [Hydroxamate, N-Hydroxy-2,4-dichlorocinnanamide], the IC50 at BoNT/B LC, on BaLF, on MMP-1, at MMP-2 and at MMP-9 was over 100 µM throughout.

Source of the values: article PMC3509773 (The botulinum journal, 2011).
